In PubChem BioAssay AID330 (DTP/NCI, 2004):
“And” between values parts separate entries of the source, which are not always exact repeats. Identical values can stand only once. Inconclusive results and toxic doses are left out. The calls were made as follows: active = survival T/C of 150% or more; inactive = T/C below 125% in these data.

Tested on: P388 leukemia ip, CD2F1 mice, survival T/C
Assay: NCI In Vivo Anticancer Drug Screen. Data for tumor model P388 Leukemia (intraperitoneal) in CD2F1 (CDF1) mice
Conditions: endpoint: median survival time, higher = longer survival
Summary of the method: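 Mice carrying the transplanted tumor received test compound or vehicle. Survival was recorded in each group, and the value is the treated-group measurement divided by that of the vehicle-treated control group.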

Measured: T/C

CCCCCCCCCCCCCCCC(=O)NCC(=O)NC1C(CO)OC(Nc2ncnc3nc[nH]c23)C(O)C1O (stereo not drawn)
inactive: dose: 0.13 mg/kg/injection, schedule: Q01DX009 (ip), vehicle: water 110 % of control | dose: 0.25 mg/kg/injection, schedule: Q01DX009 (ip), vehicle: water 107 % of control | dose: 1.0 mg/kg/injection, schedule: Q01DX009 (ip), vehicle: water 96 % of control | dose: 2.0 mg/kg/injection, schedule: Q01DX009 (ip), vehicle: water 98 % of control

CN(C)C1=C(N(C)C)C1N(C)C
inactive: dose: 10.0 mg/kg/injection, schedule: Q04DX003 (ip), vehicle: saline 100 % of control | dose: 20.0 mg/kg/injection, schedule: Q04DX003 (ip), vehicle: saline 97 % of control | dose: 40.0 mg/kg/injection, schedule: Q04DX003 (ip), vehicle: saline 101 % of control

O=C1CSC(=S)N1c1ccc(Br)cc1
inactive: dose: 50.0 mg/kg/injection, schedule: Q01DX009 (ip), vehicle: Klucel (hydroxypropylcellulose) (HPC) 106 % of control | dose: 100.0 mg/kg/injection, schedule: Q01DX009 (ip), vehicle: Klucel (hydroxypropylcellulose) (HPC) 105 % of control | dose: 200.0 mg/kg/injection, schedule: Q01DX009 (ip), vehicle: Klucel (hydroxypropylcellulose) (HPC) 108 % of control

CCCCC(CC)CCC(C)O (stereo not drawn)
inactive: dose: 50.0 mg/kg/injection, schedule: Q04DX003 (ip), vehicle: saline with Tween-80 100 % of control | dose: 100.0 mg/kg/injection, schedule: Q04DX003 (ip), vehicle: saline with Tween-80 109 % of control

Cc1cc(NCCCN(C)C)c2ccc3cc4ccccc4cc3c2n1
inactive: dose: 25.0 mg/kg/injection, schedule: Q04DX002 (ip), vehicle: saline with Tween-80 93 % of control | dose: 50.0 mg/kg/injection, schedule: Q04DX002 (ip), vehicle: saline with Tween-80 92 % of control | dose: 100.0 mg/kg/injection, schedule: Q04DX002 (ip), vehicle: saline with Tween-80 108 % of control and 94 % of control

O=C1/C(=C/N2CCOCC2)CCc2nc(-c3ccccc3)sc21
inactive: dose: 50.0 mg/kg/injection, schedule: Q01DX005 (ip), vehicle: Klucel (hydroxypropylcellulose) (HPC) 109 % of control | dose: 100.0 mg/kg/injection, schedule: Q01DX005 (ip), vehicle: Klucel (hydroxypropylcellulose) (HPC) 100 % of control | dose: 200.0 mg/kg/injection, schedule: Q01DX005 (ip), vehicle: Klucel (hydroxypropylcellulose) (HPC) 100 % of control
